# Laboratory results from PubChem BioAssay (NCI).
# Where “and” joins values, the source holds several entries; their conditions need not be identical. Identical values can stand only once.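 Growth conditions: 96-well plates. Treatment: test compound, 48 hours, 5 concentrations. Analysis: linear interpolation between bracketing concentrations; unreached endpoints set to highest concentration. GI50 marks 50% less growth. TGI: concentration producing complete growth inhibition.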
# Tests used:
# Experiment in all cases: NCI tumour cell line growth inhibition, 48 h
# SNB-78 CNS = tested on: SNB-78 CNS
# HCT-15 colon = tested on: HCT-15 colon
# OVCAR-5 ovarian = tested on: OVCAR-5 ovarian
# UACC-257 melanoma = tested on: UACC-257 melanoma
# MOLT-4 leukemia = tested on: MOLT-4 leukemia
# ACHN renal = tested on: ACHN renal
# A549 NSCLC = tested on: A549 NSCLC
# OVCAR-4 ovarian = tested on: OVCAR-4 ovarian
# SF-295 CNS = tested on: SF-295 CNS
# SNB-19 CNS = tested on: SNB-19 CNS
# RPMI-8226 leukemia = tested on: RPMI-8226 leukemia
# HCT-116 colon = tested on: HCT-116 colon
# NCI-H522 lung = tested on: NCI-H522 lung
# SK-MEL-28 melanoma = tested on: SK-MEL-28 melanoma
# SF-539 CNS = tested on: SF-539 CNS
# NCI-H226 lung = tested on: NCI-H226 lung
# NCI-H23 lung = tested on: NCI-H23 lung
# 786-0 renal = tested on: 786-0 renal
# DMS 273 small cell lung = tested on: DMS 273 small cell lung
# SN12C renal = tested on: SN12C renal
# SF-268 CNS = tested on: SF-268 CNS
# DLD-1 colon = tested on: DLD-1 colon
# LOX IMVI melanoma = tested on: LOX IMVI melanoma
# COLO 205 colon = tested on: COLO 205 colon
# MALME-3M melanoma = tested on: MALME-3M melanoma
# OVCAR-3 ovarian = tested on: OVCAR-3 ovarian
# K-562 leukemia = tested on: K-562 leukemia
# HL-60(TB) leukemia = tested on: HL-60(TB) leukemia
# DMS 114 small cell lung = tested on: DMS 114 small cell lung
# HOP-18 NSCLC = tested on: HOP-18 NSCLC
# U251 CNS = tested on: U251 CNS
# M14 melanoma = tested on: M14 melanoma
# CCRF-CEM leukemia = tested on: CCRF-CEM leukemia
# NCI-H460 lung = tested on: NCI-H460 lung
# IGROV1 ovarian = tested on: IGROV1 ovarian
# TK-10 renal = tested on: TK-10 renal
# M19-MEL melanoma = tested on: M19-MEL melanoma
# UACC-62 melanoma = tested on: UACC-62 melanoma
# HCC-2998 colon = tested on: HCC-2998 colon
# KM20L2 colon = tested on: KM20L2 colon
# SK-MEL-2 melanoma = tested on: SK-MEL-2 melanoma
# SNB-75 CNS = tested on: SNB-75 CNS
# HOP-62 NSCLC = tested on: HOP-62 NSCLC
# HT29 colon = tested on: HT29 colon
# KM12 colon = tested on: KM12 colon
# HOP-92 NSCLC = tested on: HOP-92 NSCLC
# XF 498 CNS = tested on: XF 498 CNS
# A498 renal = tested on: A498 renal
# SK-MEL-5 melanoma = tested on: SK-MEL-5 melanoma
# SR leukemia = tested on: SR leukemia
# SK-OV-3 ovarian = tested on: SK-OV-3 ovarian
# CAKI-1 renal = tested on: CAKI-1 renal
# UO-31 renal = tested on: UO-31 renal
# OVCAR-8 ovarian = tested on: OVCAR-8 ovarian
# SW-620 colon = tested on: SW-620 colon
# RXF 393 renal = tested on: RXF 393 renal
# EKVX NSCLC = tested on: EKVX NSCLC
# LXFL 529 NSCLC = tested on: LXFL 529 NSCLC
compound,measurement,setting,value
NCCSc1nc(N)c2ncn(C3OC(CO)C(O)C3O)c2n1 (stereo not drawn),TGI,SNB-78 CNS,> 100 µM
same,TGI,HCT-15 colon,> 100 µM
same,TGI,OVCAR-5 ovarian,> 100 µM
same,TGI,UACC-257 melanoma,> 100 µM
same,TGI,MOLT-4 leukemia,> 100 µM
same,TGI,ACHN renal,> 100 µM
same,TGI,A549 NSCLC,> 100 µM
same,TGI,OVCAR-4 ovarian,> 100 µM
same,TGI,SF-295 CNS,> 100 µM
same,TGI,SNB-19 CNS,> 100 µM
same,TGI,RPMI-8226 leukemia,> 100 µM
same,TGI,HCT-116 colon,> 100 µM
same,TGI,NCI-H522 lung,> 100 µM
same,TGI,SK-MEL-28 melanoma,> 100 µM
same,TGI,SF-539 CNS,> 100 µM
same,TGI,NCI-H226 lung,> 100 µM
same,TGI,NCI-H23 lung,> 100 µM
same,TGI,786-0 renal,> 100 µM
same,TGI,DMS 273 small cell lung,> 100 µM
same,TGI,SN12C renal,> 100 µM
same,TGI,SF-268 CNS,> 100 µM
same,TGI,DLD-1 colon,> 100 µM
same,TGI,LOX IMVI melanoma,> 100 µM
same,TGI,COLO 205 colon,> 100 µM
same,TGI,MALME-3M melanoma,> 100 µM
same,TGI,OVCAR-3 ovarian,> 100 µM
same,TGI,K-562 leukemia,> 100 µM
same,TGI,HL-60(TB) leukemia,> 100 µM
same,TGI,DMS 114 small cell lung,> 100 µM
same,TGI,HOP-18 NSCLC,> 100 µM
same,TGI,U251 CNS,> 100 µM
same,TGI,M14 melanoma,> 100 µM
same,TGI,CCRF-CEM leukemia,> 100 µM
same,TGI,NCI-H460 lung,> 100 µM
same,TGI,IGROV1 ovarian,> 100 µM
same,TGI,TK-10 renal,> 100 µM
same,TGI,M19-MEL melanoma,> 100 µM
same,TGI,UACC-62 melanoma,> 100 µM
same,TGI,HCC-2998 colon,> 100 µM
same,TGI,KM20L2 colon,> 100 µM
same,TGI,SK-MEL-2 melanoma,> 100 µM
same,TGI,SNB-75 CNS,> 100 µM
same,TGI,HOP-62 NSCLC,> 100 µM
same,TGI,HT29 colon,> 100 µM
same,TGI,KM12 colon,> 100 µM
same,TGI,HOP-92 NSCLC,> 100 µM
same,TGI,XF 498 CNS,> 100 µM
same,TGI,A498 renal,> 100 µM
same,TGI,SK-MEL-5 melanoma,> 100 µM
same,TGI,SR leukemia,> 100 µM
same,TGI,SK-OV-3 ovarian,> 100 µM
same,TGI,CAKI-1 renal,> 100 µM
same,TGI,UO-31 renal,> 100 µM
same,TGI,OVCAR-8 ovarian,> 100 µM
same,TGI,SW-620 colon,> 100 µM
Nc1nc2c(ncn2CC(CO)CC(c2ccccc2)P(=O)(O)O)c(=O)[nH]1 (stereo not drawn),TGI,SNB-78 CNS,> 100 µM
same,TGI,HCT-15 colon,> 100 µM
same,TGI,OVCAR-5 ovarian,> 100 µM
same,TGI,UACC-257 melanoma,> 100 µM
same,TGI,MOLT-4 leukemia,> 100 µM
same,TGI,ACHN renal,> 100 µM
same,TGI,A549 NSCLC,> 100 µM
same,TGI,SF-295 CNS,> 100 µM
same,TGI,SNB-19 CNS,> 100 µM
same,TGI,RPMI-8226 leukemia,> 100 µM
same,TGI,HCT-116 colon,> 100 µM
same,TGI,NCI-H522 lung,> 100 µM
same,TGI,SK-MEL-28 melanoma,> 100 µM
same,TGI,SF-539 CNS,> 100 µM
same,TGI,NCI-H226 lung,> 100 µM
same,TGI,NCI-H23 lung,> 100 µM
same,TGI,RXF 393 renal,> 100 µM
same,TGI,786-0 renal,> 100 µM
same,TGI,DMS 273 small cell lung,> 100 µM
same,TGI,SN12C renal,> 100 µM
same,TGI,SF-268 CNS,> 100 µM
same,TGI,DLD-1 colon,> 100 µM
same,TGI,LOX IMVI melanoma,> 100 µM
same,TGI,COLO 205 colon,> 100 µM
same,TGI,MALME-3M melanoma,> 100 µM
same,TGI,OVCAR-3 ovarian,> 100 µM
same,TGI,K-562 leukemia,> 100 µM
same,TGI,HL-60(TB) leukemia,> 100 µM
same,TGI,DMS 114 small cell lung,> 100 µM
same,TGI,HOP-18 NSCLC,> 100 µM
same,TGI,U251 CNS,> 100 µM
same,TGI,M14 melanoma,> 100 µM
same,TGI,CCRF-CEM leukemia,> 100 µM
same,TGI,NCI-H460 lung,> 100 µM
same,TGI,IGROV1 ovarian,> 100 µM
same,TGI,TK-10 renal,> 100 µM
same,TGI,M19-MEL melanoma,> 100 µM
same,TGI,UACC-62 melanoma,> 100 µM
same,TGI,HCC-2998 colon,> 100 µM
same,TGI,KM20L2 colon,> 100 µM
same,TGI,SK-MEL-2 melanoma,> 100 µM
same,GI50,SNB-75 CNS,13.2 µM and > 100 µM
same,TGI,SNB-75 CNS,> 100 µM
same,TGI,HOP-62 NSCLC,> 100 µM
same,TGI,EKVX NSCLC,> 100 µM
same,TGI,HT29 colon,> 100 µM
same,TGI,LXFL 529 NSCLC,> 100 µM
same,TGI,KM12 colon,> 100 µM
same,TGI,HOP-92 NSCLC,> 100 µM
same,TGI,XF 498 CNS,> 100 µM
same,TGI,A498 renal,> 100 µM
same,TGI,SK-MEL-5 melanoma,> 100 µM
same,TGI,SR leukemia,> 100 µM
same,TGI,SK-OV-3 ovarian,> 100 µM
same,TGI,CAKI-1 renal,> 100 µM
same,TGI,UO-31 renal,> 100 µM
same,TGI,OVCAR-8 ovarian,> 100 µM
same,TGI,SW-620 colon,> 100 µM
